In PubChem BioAssay AID1259411 (Chemical Carcinogenesis Research Information System (CCRIS), 2018):
The source made the active and inactive calls. How the calls were made is not given here. *1 amine or outer side, *2 acyl side, *3 side chain or, on linkers, in order; H or OH if unused. Where a SMILES comes first, the peptide text is derived from it. Bridges are numbered along the chain shown (N, C = ends). Roman numbers before positions name the chains, in order. [ ]: non-standard residue; d: D form. Actinocin(9to1) = Cc1c2oc3c(C)ccc(C(=O)[*:1])c3nc-2c(C(=O)[*:2])c(N)c1=O; NMeV = CN[C@H](C(=O)O)C(C)C; Sar = CNCC(=O)O

Test system: rodent carcinogenicity bioassays, tumor incidence
Assay: CCRIS carcinogenicity studies
Summary of the method: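 Archive of carcinogenicity, mutagenicity, tumor promotion and tumor inhibition results drawn from journals, NCI reports and other sources, expert-reviewed; covers 1985-2011 and is no longer updated.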

**Q.** What does the source list for CCCCOCCOCCOCc1cc2c(cc1CCC)OCO2?
**A.** carcinogen call (Species: MOUSE, Strain/Sex: B6C3F1/FEMALE, Route: ORAL, Dose: 0, 1036, 2804 PPM IN DIET, TWA, Dose: 0, 1036, 2804 PPM IN DIET, TWA): inactive; negative; carcinogen call (Species: MOUSE, Strain/Sex: B6C3F1/MALE, Route: ORAL, Dose: 0, 1036, 2804 PPM IN DIET, TWA, Dose: 0, 1036, 2804 PPM IN DIET, TWA): inactive; negative; carcinogen call (Species: MOUSE, Strain/Sex: CD-1/FEMALE, Route: ORAL, Dose: 0, 0.6, 1.2% IN DIET FOR 52 WK (STUDY DURATION: 52 WK), Dose: 0, 0.6, 1.2% IN DIET FOR 52 WK (STUDY DURATION: 52 WK), Tumor Site: Type of Lesion: LIVER: HEPATOCELLULAR ADENOMA, HEPATOCELLULAR CARCINOMA): active; positive; carcinogen call (Species: MOUSE, Strain/Sex: CD-1/FEMALE, Route: ORAL, Dose: 0, 30, 100, 300 MG/KG/D IN DIET FOR 79 WK (STUDY DURATION: 79 WK), Dose: 0, 30, 100, 300 MG/KG/D IN DIET FOR 79 WK (STUDY DURATION: 79 WK), Tumor Site: Type of Lesion: LIVER: HEPATOCELLULAR ADENOMA): active; positive; carcinogen call (Species: MOUSE, Strain/Sex: CD-1/MALE, Route: ORAL, Dose: 0, 0.6, 1.2% IN DIET FOR 12 MO (STUDY DURATION: 12 MO), Dose: 0, 0.6, 1.2% IN DIET FOR 12 MO (STUDY DURATION: 12 MO), Tumor Site: Type of Lesion: LIVER: HEPATOCELLULAR ADENOMA, HEPATOCELLULAR CARCINOMA, HEMANGIOENDOTHELIAL SARCOMA (SMALL), HEMANGIOENDOTHELIAL SARCOM): active; positive; carcinogen call (Species: MOUSE, Strain/Sex: CD-1/MALE, Route: ORAL, Dose: 0, 0.6, 1.2% IN DIET FOR 52 WK (STUDY DURATION: 52 WK), Dose: 0, 0.6, 1.2% IN DIET FOR 52 WK (STUDY DURATION: 52 WK), Tumor Site: Type of Lesion: LIVER: HEPATOCELLULAR ADENOMA, HEPATOCELLULAR CARCINOMA): active; positive; carcinogen call (Species: MOUSE, Strain/Sex: CD-1/MALE, Route: ORAL, Dose: 0, 30, 100, 300 MG/KG/D IN DIET FOR 79 WK (STUDY DURATION: 79 WK), Dose: 0, 30, 100, 300 MG/KG/D IN DIET FOR 79 WK (STUDY DURATION: 79 WK), Tumor Site: Type of Lesion: LIVER: HEPATOCELLULAR ADENOMA): active; positive; carcinogen call (Species: RAT, Strain/Sex: F344/FEMALE, Route: ORAL, Dose: 0, 0.5, 1% IN DIET FOR 2 YR (STUDY DURATION: 110 WK), Dose: 0, 0.5, 1% IN DIET FOR 2 YR (STUDY DURATION: 110 WK)): inactive; negative; carcinogen call (Species: RAT, Strain/Sex: F344/FEMALE, Route: ORAL, Dose: 0, 0.6, 1.2, 2.4% IN DIET FOR 96 WK (STUDY DURATION: 96 WK), Dose: 0, 0.6, 1.2, 2.4% IN DIET FOR 96 WK (STUDY DURATION: 96 WK), Tumor Site: Type of Lesion: LIVER: HEPATOCELLULAR ADENOMA, HEPATOCELLULAR CARCINOMA): active; positive; carcinogen call (Species: RAT, Strain/Sex: F344/FEMALE, Route: ORAL, Dose: 0, 5000, 10000 PPM IN DIET, Dose: 0, 5000, 10000 PPM IN DIET): inactive; negative; carcinogen call (Species: RAT, Strain/Sex: F344/MALE, Route: ORAL, Dose: 0, 0.5, 1% IN DIET FOR 2 YR (STUDY DURATION: 110 WK), Dose: 0, 0.5, 1% IN DIET FOR 2 YR (STUDY DURATION: 110 WK)): inactive; negative; carcinogen call (Species: RAT, Strain/Sex: F344/MALE, Route: ORAL, Dose: 0, 0.6, 1.2, 2.4% IN DIET FOR 95 WK (STUDY DURATION: 95 WK), Dose: 0, 0.6, 1.2, 2.4% IN DIET FOR 95 WK (STUDY DURATION: 95 WK), Tumor Site: Type of Lesion: LIVER: HEPATOCELLULAR ADENOMA, HEPATOCELLULAR CARCINOMA): active; positive; carcinogen call (Species: RAT, Strain/Sex: F344/MALE, Route: ORAL, Dose: 0, 5000, 10000 PPM IN DIET, Dose: 0, 5000, 10000 PPM IN DIET): inactive; negative; carcinogen call (Species: RAT, Strain/Sex: SPRAGUE-DAWLEY/FEMALE, Route: ORAL, Dose: 0, 30, 100, 500 MG/KG/D IN DIET FOR 104-105 WK (STUDY DURATION: 105 WK), Dose: 0, 30, 100, 500 MG/KG/D IN DIET FOR 104-105 WK (STUDY DURATION: 105 WK)): inactive; negative; carcinogen call (Species: RAT, Strain/Sex: SPRAGUE-DAWLEY/MALE, Route: ORAL, Dose: 0, 30, 100, 500 MG/KG/D IN DIET FOR 104-105 WK (STUDY DURATION: 105 WK), Dose: 0, 30, 100, 500 MG/KG/D IN DIET FOR 104-105 WK (STUDY DURATION: 105 WK)): inactive; negative

**Q.** Which results are given for CCCO?
**A.** carcinogen call (Species: DOG, Strain/Sex: BEAGLE/FEMALE, Route: GAVAGE, Dose: 0, 30, 180 MG/KG/D 7 D/WK FOR 52 WK (STUDY DURATION: 52 WK), Dose: 0, 30, 180 MG/KG/D 7 D/WK FOR 52 WK (STUDY DURATION: 52 WK)): inactive; negative; carcinogen call (Species: DOG, Strain/Sex: BEAGLE/MALE, Route: GAVAGE, Dose: 0, 30, 180 MG/KG/D 7 D/WK FOR 52 WK (STUDY DURATION: 52 WK), Dose: 0, 30, 180 MG/KG/D 7 D/WK FOR 52 WK (STUDY DURATION: 52 WK)): inactive; negative; carcinogen call (Species: MONKEY, Strain/Sex: MACACA ARCTODIES/MALE, Route: ORAL, Dose: 0, 0.25, 2.5, 25 MG/KG 1/D FOR 54 WK (STUDY DURATION: 54 WK), Dose: 0, 0.25, 2.5, 25 MG/KG 1/D FOR 54 WK (STUDY DURATION: 54 WK)): inactive; negative; carcinogen call (Species: MOUSE, Strain/Sex: SWISS/FEMALE, Route: GAVAGE, Dose: 0, 50, 500 MG/KG/D FOR 18 MO (STUDY DURATION: 18 MO), Dose: 0, 50, 500 MG/KG/D FOR 18 MO (STUDY DURATION: 18 MO)): inactive; negative; carcinogen call (Species: MOUSE, Strain/Sex: SWISS/MALE, Route: GAVAGE, Dose: 0, 50, 500 MG/KG/D FOR 18 MO (STUDY DURATION: 18 MO), Dose: 0, 50, 500 MG/KG/D FOR 18 MO (STUDY DURATION: 18 MO)): inactive; negative; carcinogen call (Species: RAT, Strain/Sex: SPRAGUE-DAWLEY/FEMALE, Route: GAVAGE, Dose: 0, 50, 500 MG/KG 1/D FOR 24 MO (STUDY DURATION: 24 MO), Dose: 0, 50, 500 MG/KG 1/D FOR 24 MO (STUDY DURATION: 24 MO)): inactive; negative; carcinogen call (Species: RAT, Strain/Sex: SPRAGUE-DAWLEY/MALE, Route: GAVAGE, Dose: 0, 50, 500 MG/KG 1/D FOR 24 MO (STUDY DURATION: 24 MO), Dose: 0, 50, 500 MG/KG 1/D FOR 24 MO (STUDY DURATION: 24 MO)): inactive; negative

**Q.** For Cc1c2oc3c(C)ccc(C(=O)N[C@@H]4C(=O)N[C@H](C(C)C)C(=O)N5CCC[C@H]5C(=O)N(C)CC(=O)N(C)[C@@H](C(C)C)C(=O)O[C@@H]4C)c3nc-2c(C(=O)N[C@@H]2C(=O)N[C@H](C(C)C)C(=O)N3CCC[C@H]3C(=O)N(C)CC(=O)N(C)[C@@H](C(C)C)C(=O)O[C@@H]2C)c(N)c1=O (I: T[dV]P[Sar][NMeV] / II: T[dV]P[Sar][NMeV]; ester I:1-I:C, II:1-II:C; linker I:N-II:N via Actinocin(9to1)), which carcinogen call (Species: RAT, Route: INTRAPERITONEAL, Tumor Site: Type of Lesion: PERITONEAL CAVITY) is on record?
**A.** The carcinogen call was “active; positive”.
